Measured values published in ChEMBL document CHEMBL5131496, “Adiponectin-Secretion-Promoting Cyclic Peptide-Polyketide Hybrids from a Halophyte-Associated Fungus, Colletotrichum gloeosporioides JS0417” (J Nat Prod, 2022).
The source made the active and inactive calls. The rule behind the calls is not given here.

Assays:
Mesenchymal stem cells [1] = experiment: Induction of adiponectin secretion in human differentiated BMMSC cells assessed as increase in number of lipid droplet at 30 uM in the presence of IDX induction medium by Oil red O staining based inverted phase contrast microscope analysis; type: functional, cell-based
Mesenchymal stem cells [2] = experiment: Induction of adiponectin secretion in human differentiated BMMSC cells at 30 uM in the presence of IDX induction medium and measured on 5 day by ELISA relative to control; type: functional
Mesenchymal stem cells [3] = experiment: Induction of adiponectin secretion in human differentiated BMMSC cells measured at 5 day in the presence of IDX induction medium by ELISA; type: functional, cell-based; conditions: for EC50: 120 h
Mesenchymal stem cells [4] = experiment: Induction of adiponectin secretion in human differentiated BMMSC cells assessed as increase in size of lipid droplet at 30 uM in the presence of IDX induction medium by Oil red O staining based inverted phase contrast microscope analysis; type: functional, cell-based
HaCaT [5] = experiment: Antiinflammatory activity against human HaCaT cells assessed as inhibition of UVB irradiation-induced PGE2 production measured after 2 hrs by ELISA; type: functional, cell-based; conditions: light or radiation study
Mesenchymal stem cells [6] = experiment: Induction of adiponectin secretion in human differentiated BMMSC cells assessed as increase in lipid droplet accumulation at 300 uM in the presence of IDX induction medium by Oil red O staining based inverted phase contrast microscope analysis; type: functional, cell-based
HaCaT [7] = experiment: Antiinflammatory activity against human HaCaT cells assessed as inhibition of UVB irradiation-induced PGE2 production at 10 uM measured after 2 hrs by ELISA; type: functional, cell-based

Row | SMILES | Activity (Mesenchymal stem cells [2]) | EC50 (Mesenchymal stem cells [3]) | IC50 (HaCaT [5]) | other results
1 | CC[C@H](C)[C@H]1C(=O)O[C@H]([C@@H](C)CCCC[C@@H](C)O)C[C@@H](O)[C@@H](C)C(=O)N[C@H](Cc2ccccc2)C(=O)N1C | 123% | 22.7 µM |  | Activity (Mesenchymal stem cells [1]): Active; Activity (Mesenchymal stem cells [4]): Active
2 | CC(C)C[C@H]1NC(=O)[C@H](C)[C@H](O)C[C@@H]([C@@H](C)CCCC[C@@H](C)O)OC(=O)[C@H](CC(C)C)N(C)C1=O | 116% | 29.4 µM |  | Activity (Mesenchymal stem cells [1]): Active; Activity (Mesenchymal stem cells [4]): Active
3 | CCC(C)/C=C/CC(C)/C=C/C(=O)O[C@@H]1[C@@H](O)[C@H](c2c(C)cc(O)cc2O)O[C@H](CO)[C@H]1O (stereo partly drawn) | 78% |  |  | 
4 | CC(=O)Oc1ccccc1C(=O)O [ASPIRIN] |  | > 300 µM | 21.3 µM | Activity (Mesenchymal stem cells [6]): Active
5 | COc1ccc(Cl)cc1C(=O)NCCc1ccc(S(=O)(=O)NC(=O)NC2CCCCC2)cc1 [GLYBURIDE] |  | 2.8 µM |  | 
6 | Oc1ccc(/C=C/c2cc(O)cc(O)c2)cc1 [RESVERATROL] |  |  | 18.3 µM | 
7 | OCCc1c[nH]c2ccccc12 [TRYPTOPHOL] |  |  | 6.55 µM | Activity (HaCaT [7]): Active; Activity (Mesenchymal stem cells [6]): Active; Activity (Mesenchymal stem cells [3]; DDE = dose-dependent effect): Dde
